Tests used:
DPPH scavenging assay = experiment: DPPH scavenging assay
Protocol: About 24 mg, DPPH was dissolved in 100 mL methanol. Compounds solutions (1 mg/mL) were also prepared in methanol. […] About 0.1 mL of each working dilution was mixed with DPPH (3.0 mL) and incubated at 25 °C for 30 min. […] Ascorbic acid was used as a standard.

ABTS scavenging assay = experiment: ABTS scavenging assay
Protocol: About 300 μL compounds working dilutions and 3.0 mL ABTS solutions were mixed and incubated for 6 min. Finally the absorbance was measured via UV spectrophotometer. Ascorbic acid was used as positive control. % ABTS scavenging potential was measured using eq. 4.

[1] = target: T1, Acetyl cholinesterase (Electron-eel Type, VI-S) (Electrophorus electricus, UniProt O42275); experiment: biochemical; format: biochemical; conditions: for IC50: linear regression, read-out: AChE IC50 (converted)
T1 construct: purchased Sigma-Aldrich, Germany
T1 sequence (O42275 24-633): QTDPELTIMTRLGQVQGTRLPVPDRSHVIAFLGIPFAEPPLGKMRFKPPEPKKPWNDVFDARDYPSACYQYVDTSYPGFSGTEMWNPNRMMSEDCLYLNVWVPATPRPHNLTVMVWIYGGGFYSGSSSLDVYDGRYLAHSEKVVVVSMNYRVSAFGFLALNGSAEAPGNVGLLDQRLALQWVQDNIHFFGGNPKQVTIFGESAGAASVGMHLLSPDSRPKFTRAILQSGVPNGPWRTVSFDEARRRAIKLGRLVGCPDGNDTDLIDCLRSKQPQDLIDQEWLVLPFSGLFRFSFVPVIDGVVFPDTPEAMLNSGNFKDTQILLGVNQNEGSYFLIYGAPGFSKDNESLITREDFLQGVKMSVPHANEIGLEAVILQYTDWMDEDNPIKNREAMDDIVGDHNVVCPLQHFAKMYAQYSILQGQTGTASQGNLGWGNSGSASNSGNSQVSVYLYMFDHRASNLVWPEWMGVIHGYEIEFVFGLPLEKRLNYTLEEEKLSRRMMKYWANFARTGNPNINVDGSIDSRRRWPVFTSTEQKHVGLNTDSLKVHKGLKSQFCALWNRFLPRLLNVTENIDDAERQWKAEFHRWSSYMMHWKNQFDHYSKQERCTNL
Protocol: Ellman assay was used to evaluate E. umbellata fruit extracts and isolated compounds for their anticholinesterase potentials. About 205 μL extract/compound solutions and 5 μL of AChE (0.03 U/mL)/BChE (0.01 U/mL) along with catalyst DTNB (5 μL) were taken in a cuvette and kept at 30 °C in hot water bath for 15 min. […] As a negative control solution all the above mentioned components except extracts and isolated compounds were mixed in the mentioned order.
V is inhibitor dependent rate of reaction while, Vmax is inhibitor independent rate of reaction.

[2] = tested on: scopolamine-induced cognitive impairment in mice; experiment: Y-maze test, scopolamine-induced amnesia; format: in vivo
Protocol: (§1) After the acclimatization period, in scopolamine-induced amnesia test the Albino male mice were randomly divided into six groups (n = 6) to study the effect of CHF. […] The doses of tested solutions of CHF. […] The treatments were continued for 8 days. In the Y-maze and Novel object recognition tests, scopolamine (1 mg/kg, i.p.) was given to the different groups only on the 8th day, 30 min after the respective treatments, to induce cognitive deficit in mice. One hour after administration of the drugs all animals were subjected to Y-maze and Novel object recognition test following standard procedure.
The Y-Maze test was designed to evaluate the short term memory in experimental mice using reported procedure. Y-maze apparatus is Y shaped with three arms of equivalent size, labelled as A, B, and C. Each arm was 20 cm long, 6 cm wide and 15.5 cm high and was oriented at an angle of 120° from the other two. For each animal the Y maze testing was carried out for 5 min. Mice were placed in one arm, and the order and number of arm entries were recorded. An arm entry was considered to be complete when the hind paws of the mice was completely inside a given arm while alternation was defined as consecutive entries by a mouse into the three different arms. The arena was cleaned using 70% v/v ethanol between each trial to avoid olfactory cues. The escape latency (second) on day 1–5 were recorded for all animals. At the end of 5th day, the spontaneous alteration behavior study was conducted. In spontaneous alteration study, each animal was placed at the center of the Y-Maze apparatus and allowed to move freely through the maze. The series of arm entries were visually recorded. To start behavioral test the mice was set in one arm and recorded the number of arm entries, same arm returns (SAR), and alternate arm returns (AAR) were measured. Percent spontaneous alternation performance (SAP) was calculated by the following formula: 5 %SAP=Active alterationstotal alterations/Possible alterationstotalarmentries−2x100

[3] = tested on: scopolamine-induced cognitive impairment in mice; experiment: Novel object recognition test, scopolamine-induced amnesia; format: in vivo; conditions: donepezil 2 mg/kg
Protocol: as §1
The detail methodology published, was followed while performing the novel object recognition (NORT) test. NORT consisting of habituation, sample, and test phases. On the day before test, mice were allowed to explore the box (without any object) for 2 min. On the day of test after habituation the sample phase was carried out 60 min after the last treatment on the 8th day. In sample phase each mouse was placed in an open field with two identical objects (plastic ball) for 5 min. The mouse was then returned to its home cage. The apparatus was comprised of a white coloured plywood box (40 cm × 40 cm × 66 cm) with a network floors that could be effortlessly cleaned (with 70%v/v ethanol) after every trial. The apparatus was illuminated by a 60 W light suspended 50 cm over the crate. The arena and objects were cleaned with 70% v/v ethanol between trials to avoid olfactory cues. For short-term memory, the test phase was performed 5 min after the sample phase. In the test phase, each mouse was placed again in the open field in which one of the identical objects had been replaced with a novel object (plastic square). The location of the object was counterbalanced so that one half of the mice in each group saw the novel object on the left side of the box arena, and the other half saw the novel object on the right side of the box arena to eliminate bias of sides. NORT can also be used for encoding and retrieval of spatial memory (long-term memory). A wash-out period of 5 days was allowed before the NORT to assess long-term memory in mice. The procedure was the same as that for short-term memory except that mice were presented in the test phase 24 h after the sample phase exposure. The time spent exploring each object in each phase was recorded manually using a stopwatch. A mouse was scored as exploring when its head was oriented towards the object within a distance of 2 cm or when the nose was in contact with the object. Parameters including the time (in seconds) spent exploring familiar (F) object, time (in seconds) spent exploring the novel (N) object, and total time (in seconds) spent exploring both objects (N + F) were measured separately.

[4] = vs scopolamine (1 mg/kg) group, CHF. Ext 200 mg/kg, CGA 10 and 30 mg/kg, donepezil 2 mg/kg

O=C1O[C@H]([C@@H](O)CO)C(O)=C1O [Ascorbic acid, reference compound]
DPPH IC50 (DPPH scavenging assay): 29 µg/mL
% DPPH Scavenging Mean ± SEM (DPPH scavenging assay; 31.05 µg/mL): 69±0.4%
% DPPH Scavenging Mean ± SEM (DPPH scavenging assay; 62.5 µg/mL): 73±0.5%
% DPPH Scavenging Mean ± SEM (DPPH scavenging assay; 125 µg/mL): 77±0.4%
% DPPH Scavenging Mean ± SEM (DPPH scavenging assay; 250 µg/mL): 80±0.4%
% DPPH Scavenging Mean ± SEM (DPPH scavenging assay; 500 µg/mL): 86±1.0%
% DPPH Scavenging Mean ± SEM (DPPH scavenging assay; 1000 µg/mL): 91±0.5%
ABTS IC50 (ABTS scavenging assay): 32 µg/mL
% ABTS Scavenging Mean ± SEM (ABTS scavenging assay; 31.05 µg/mL): 56±1.1%
% ABTS Scavenging Mean ± SEM (ABTS scavenging assay; 62.5 µg/mL): 64±1.0%
% ABTS Scavenging Mean ± SEM (ABTS scavenging assay; 125 µg/mL): 70±0.5%
% ABTS Scavenging Mean ± SEM (ABTS scavenging assay; 250 µg/mL): 78±0.5%
% ABTS Scavenging Mean ± SEM (ABTS scavenging assay; 500 µg/mL): 84±1.1%
% ABTS Scavenging Mean ± SEM (ABTS scavenging assay; 1000 µg/mL): 90±0.5%

O=c1oc2c(O)c(O)cc3c(=O)oc4c(O)c(O)cc1c4c23 [Compound-II, Ellagic acid]
DPPH IC50 (DPPH scavenging assay): 39 µg/mL
% DPPH Scavenging Mean ± SEM (DPPH scavenging assay; 31.05 µg/mL): 44±1.4 %
% DPPH Scavenging Mean ± SEM (DPPH scavenging assay; 62.5 µg/mL): 57±0.5 %
% DPPH Scavenging Mean ± SEM (DPPH scavenging assay; 125 µg/mL): 59±0.4 %
% DPPH Scavenging Mean ± SEM (DPPH scavenging assay; 250 µg/mL): 60±1.2 %
% DPPH Scavenging Mean ± SEM (DPPH scavenging assay; 500 µg/mL): 70±0.5 %
% DPPH Scavenging Mean ± SEM (DPPH scavenging assay; 1000 µg/mL): 77±1.1 %
% AChE Mean ± SEM ([1]; 31.05 µg/mL): 41±0.3 %
% AChE Mean ± SEM ([1]; 62.5 µg/mL): 48±0.5 %
% AChE Mean ± SEM ([1]; 125 µg/mL): 52±0.4 %
% AChE Mean ± SEM ([1]; 250 µg/mL): 68±0.1 %
% AChE Mean ± SEM ([1]; 500 µg/mL): 75±0.4 %
% AChE Mean ± SEM ([1]; 1000 µg/mL): 81±0.5 %
IC50 [1]: 195 µM
ABTS IC50 (ABTS scavenging assay): 44 µg/mL
% ABTS Scavenging Mean ± SEM (ABTS scavenging assay; 31.05 µg/mL): 41±0.5 %
% ABTS Scavenging Mean ± SEM (ABTS scavenging assay; 62.5 µg/mL): 49±1.0 %
% ABTS Scavenging Mean ± SEM (ABTS scavenging assay; 125 µg/mL): 57±1.0 %
% ABTS Scavenging Mean ± SEM (ABTS scavenging assay; 250 µg/mL): 64±0.3 %
% ABTS Scavenging Mean ± SEM (ABTS scavenging assay; 500 µg/mL): 65±0.4 %
% ABTS Scavenging Mean ± SEM (ABTS scavenging assay; 1000 µg/mL): 69±1.0 %

O=C(O)c1cc(O)c(O)c(O)c1 [Compound-III, Gallic acid]
DPPH IC50 (DPPH scavenging assay): 52 µg/mL
% DPPH Scavenging Mean ± SEM (DPPH scavenging assay; 31.05 µg/mL): 43±1.4 %
% DPPH Scavenging Mean ± SEM (DPPH scavenging assay; 62.5 µg/mL): 48±0.5 %
% DPPH Scavenging Mean ± SEM (DPPH scavenging assay; 125 µg/mL): 50±1.2 %
% DPPH Scavenging Mean ± SEM (DPPH scavenging assay; 250 µg/mL): 59±1.5 %
% DPPH Scavenging Mean ± SEM (DPPH scavenging assay; 500 µg/mL): 70±1.1 %
% DPPH Scavenging Mean ± SEM (DPPH scavenging assay; 1000 µg/mL): 76±0.5 %
% AChE Mean ± SEM ([1]; 31.05 µg/mL): 39±0.5 %
% AChE Mean ± SEM ([1]; 62.5 µg/mL): 43±1.1 %
% AChE Mean ± SEM ([1]; 125 µg/mL): 49±1.4 %
% AChE Mean ± SEM ([1]; 250 µg/mL): 55±0.3 %
% AChE Mean ± SEM ([1]; 500 µg/mL): 62±1.2 %
% AChE Mean ± SEM ([1]; 1000 µg/mL): 76±2.1 %
IC50 [1]: 265 µM
ABTS IC50 (ABTS scavenging assay): 54 µg/mL
% ABTS Scavenging Mean ± SEM (ABTS scavenging assay; 31.05 µg/mL): 43±1.3 %
% ABTS Scavenging Mean ± SEM (ABTS scavenging assay; 62.5 µg/mL): 48±0.4 %
% ABTS Scavenging Mean ± SEM (ABTS scavenging assay; 125 µg/mL): 50±1.5 %
% ABTS Scavenging Mean ± SEM (ABTS scavenging assay; 250 µg/mL): 54±1.1 %
% ABTS Scavenging Mean ± SEM (ABTS scavenging assay; 500 µg/mL): 60±0.5 %
% ABTS Scavenging Mean ± SEM (ABTS scavenging assay; 1000 µg/mL): 65±2.1 %

Oc1cc(O)cc(O)c1 [Compound-IV, Phloroglucinol]
DPPH IC50 (DPPH scavenging assay): 105 µg/mL
% DPPH Scavenging Mean ± SEM (DPPH scavenging assay; 31.05 µg/mL): 32±0.5 %
% DPPH Scavenging Mean ± SEM (DPPH scavenging assay; 62.5 µg/mL): 36±1.1 %
% DPPH Scavenging Mean ± SEM (DPPH scavenging assay; 125 µg/mL): 40±0.5 %
% DPPH Scavenging Mean ± SEM (DPPH scavenging assay; 250 µg/mL): 51±1.0 %
% DPPH Scavenging Mean ± SEM (DPPH scavenging assay; 500 µg/mL): 57±1.0 %
% DPPH Scavenging Mean ± SEM (DPPH scavenging assay; 1000 µg/mL): 67±0.4 %
% AChE Mean ± SEM ([1]; 31.05 µg/mL): 21±1.5 %
% AChE Mean ± SEM ([1]; 62.5 µg/mL): 29±2.1 %
% AChE Mean ± SEM ([1]; 125 µg/mL): 34±1.5 %
% AChE Mean ± SEM ([1]; 250 µg/mL): 40±0.5 %
% AChE Mean ± SEM ([1]; 500 µg/mL): 52±1.6 %
% AChE Mean ± SEM ([1]; 1000 µg/mL): 66±1.2 %
IC50 [1]: 730 µM
ABTS IC50 (ABTS scavenging assay): 112 µg/mL
% ABTS Scavenging Mean ± SEM (ABTS scavenging assay; 31.05 µg/mL): 25±1.0 %
% ABTS Scavenging Mean ± SEM (ABTS scavenging assay; 62.5 µg/mL): 33±0.5 %
% ABTS Scavenging Mean ± SEM (ABTS scavenging assay; 125 µg/mL): 39±1.2 %
% ABTS Scavenging Mean ± SEM (ABTS scavenging assay; 250 µg/mL): 45±1.0 %
% ABTS Scavenging Mean ± SEM (ABTS scavenging assay; 500 µg/mL): 51±0.5 %
% ABTS Scavenging Mean ± SEM (ABTS scavenging assay; 1000 µg/mL): 54±1.1 %

COc1cc2c(cc1OC)C(=O)C(CC1CCN(Cc3ccccc3)CC1)C2 (centres unmarked) [Donepezil, reference compound]
escape latency ([2]; day 1-5, vs scopolamine treated group): significant decline (p < 0.001)
percentage of alternate arm returns [2, 4]: significant (*p<0.05; **p < 0.01) increase
percentage of same arm returns [2, 4]: significant (p < 0.01) reduction
time for exploration of novel object, test phase, long term memory ([3]; CHF. Ext 100 & 200 mg/kg, CGA 10 & 30 mg/kg): significant (*p < 0.05, **p < 0.01) increase
%DI, long term memory ([3]; CHF. Ext 100, 200 mg/kg, CGA 10 & 30 mg/kg): significant (*p < 0.05, **p < 0.01) increase
time with novel object, test phase, short term memory ([3]; vs scopolamine group (*p < 0.05, **p < 0.01), CHF. Ext 50, 100, 200 mg/kg, CGA 10 and 30 mg/kg): more time with novel object

Source: paper PMC7216467, “Evaluation of neuroprotective and anti-amnesic effects of Elaeagnus umbellata Thunb. On scopolamine-induced memory impairment in mice” (BMC Complementary Medicine and Therapies, 2020)
